Solubility data for one compound are collected here from patent US20080008754A1, “Pharmaceutical Compositions Comprising (+)-(2S,3S)-2-(3-Chlorophenyl)-3,5,5-Trimethyl-2-Morpholinol” (SMITHKLINE BEECHAM CORPORATION, priority 2004, published 2008).

The term solubility denotes how much of the substance goes into solution per volume. High values mean much dissolved substance, low ones little dissolved substance.

The nature of this series: Solubility in an acidic environment. The format is physicochemical. To be noted: aqueous buffer.

`C[C@@H]1NC(C)(C)CO[C@@]1(O)c1cccc(Cl)c1` [compound of formula (I), (+)-(2S,3S)-2-(3-chlorophenyl)-3,5,5-trimethyl-2-morpholinol] displayed a solubility of roughly 150 mg/mL.
